Assay results reported in patent publication EP3233102B1, “USE OF AN ANTIMICROBIAL PEPTIDE TO INDUCE CELL DEATH IN BREAST CANCER” (Bolkent, Sehnaz, priority 2014, dated 2024).
Where a SMILES comes first, the peptide text is derived from it. Bridges are numbered along the chain shown (N, C = ends). Where no end group is shown, it is not given here.

Columns and labels:
MCF-7 cells = test: Lactate dehydrogenase (LDH) release cytotoxicity assay; type: cell-based; settings: 24 hours, FIG. 4
Text: (§1) The lactate dehydrogenase (LDH) release assay was used to measure cytotoxicity. Lactate dehydrogenase (LDH) is a stable cytoplasmic enzyme present in most cells. During damage to or rupture of cell cytoplasmic membranes, LDH is released from cells and into the surrounding cell culture supernatant. Quantitation of LDH in cell culture supernatant was used to measure cellular toxicity levels.
Both MCF-7 and control (normal) cells were detached from 75 cm^2 flasks with trypsin-EDTA and centrifuged. Cells were resuspended in cell culture media and diluted to a concentration of 50 cells/ µl 100 µl of cell suspension was transferred to each well of a 96-well plate. Three wells of cells were used for each concentration of cyclic dodecapeptide. The asay was performed in triplicates. […] The media of the experiment groups was replaced with media containing 50, 100, or 200 µg/ml of cyclic dodecapeptide. After the cells were incubated with cyclic dodecapeptide for 24 hours, the activity of released lactate dehydrogenase was detected following manufacture prototol. 5 µl of lysis solution (2% Triton-X-100) was added to each well. The plate was incubated at 37 °C for 15 minutes. 100 µ ? of freshly prepared reaction mixture containing catalyst (Diaphoresis NAD^+mixture) and dye solution (iodotetrazolium chloride (INT) and sodium lactate) was added to each well. After incubation in dark at room temperature for 30 minutes, the reaction was stopped by adding 50 µl of stopping solution (IN HCl) to each well. Plates were shaken in an orbital shaker for 10 seconds. Spectrophotometric absorbance was measured at 490 nm test wavelength and 690 nm reference wavelength. The results were determined as % cytotoxicity. The average absorbance value of the negative control group (no cyclic dodecapeptide added) was subtracted from each of the experiment groups. […] The control and experiment groups were compared relative to the positive control group, and their cytotoxicities were measured by using the formula below: % Cytotoxicity = ([Experiment−NegativeControl])/([PositiveControl−NegativeControl])∗100 [formula]

MDA-MB 231 cells = test: as above; type: cell-based; settings: 24 hours, FIG. 5
control (normal) cells = test: Lactate dehydrogenase (LDH) release cytotoxicity assay, control group; type: cell-based
Text: as §1
Both MCF-7 and control (normal) cells were detached from 75 cm^2 flasks with trypsin-EDTA and centrifuged. Cells were resuspended in cell culture media and diluted to a concentration of 50 cells/ µl 100 µl of cell suspension was transferred to each well of a 96-well plate. Three wells of cells were used for each concentration of cyclic dodecapeptide. The asay was performed in triplicates. […] The media of the experiment groups was replaced with media containing 50, 100, or 200 µg/ml of cyclic dodecapeptide. After the cells were incubated with cyclic dodecapeptide for 24 hours, the activity of released lactate dehydrogenase was detected following manufacture prototol. 5 µl of lysis solution (2% Triton-X-100) was added to each well. The plate was incubated at 37 °C for 15 minutes. 100 µ ? of freshly prepared reaction mixture containing catalyst (Diaphoresis NAD^+mixture) and dye solution (iodotetrazolium chloride (INT) and sodium lactate) was added to each well. After incubation in dark at room temperature for 30 minutes, the reaction was stopped by adding 50 µl of stopping solution (IN HCl) to each well. Plates were shaken in an orbital shaker for 10 seconds. Spectrophotometric absorbance was measured at 490 nm test wavelength and 690 nm reference wavelength. The results were determined as % cytotoxicity. The average absorbance value of the negative control group (no cyclic dodecapeptide added) was subtracted from each of the experiment groups. A positive control group for maximum LDH release was used as 100% cytotoxicity. The control and experiment groups were compared relative to the positive control group, and their cytotoxicities were measured by using the formula below: % Cytotoxicity = ([Experiment−NegativeControl])/([PositiveControl−NegativeControl])∗100 [formula]

emryonic neurons of rats = settings: cited from earlier work
human glioblastoma cells = settings: cited from earlier work

Row | Compound | release of lactate dehydrogenase, % cytotoxicity, MCF-7 group (MCF-7 cells; 50 µg/ml) [%] | release of lactate dehydrogenase, % cytotoxicity, MCF-7 group (MCF-7 cells; 100 µg/ml) [%] | release of lactate dehydrogenase, % cytotoxicity, MCF-7 group (MCF-7 cells; 200 µg/ml) | release of lactate dehydrogenase, % cytotoxicity, MDA-MB 231 group (MDA-MB 231 cells; 50 µg/ml) [%] | release of lactate dehydrogenase, % cytotoxicity, MDA-MB 231 group (MDA-MB 231 cells; 100 µg/ml) [%] | release of lactate dehydrogenase, % cytotoxicity, MDA-MB 231 group (MDA-MB 231 cells; 200 µg/ml) [%] | release of lactate dehydrogenase, % cytotoxicity, control group (control (normal) cells; 50 µg/ml, FIG. 4 (control group to MCF-7)) [%] | release of lactate dehydrogenase, % cytotoxicity, control group (control (normal) cells; 50 µg/ml, FIG. 5 (control group to MDA-MB 231)) [%] | release of lactate dehydrogenase, % cytotoxicity, control group (control (normal) cells; 100 µg/ml, FIG. 4 (control group to MCF-7)) [%] | release of lactate dehydrogenase, % cytotoxicity, control group (control (normal) cells; 100 µg/ml, FIG. 5 (control group to MDA-MB 231)) [%] | release of lactate dehydrogenase, % cytotoxicity, control group (control (normal) cells; 200 µg/ml, FIG. 4 (control group to MCF-7)) [%] | release of lactate dehydrogenase, % cytotoxicity, control group (control (normal) cells; 200 µg/ml, FIG. 5 (control group to MDA-MB 231)) [%] | cytotoxicity (emryonic neurons of rats) | cytotoxicity (human glioblastoma cells)
1 | CC[C@H](C)[C@@H]1NC(=O)[C@H](CCCNC(=N)N)NC(=O)[C@@H](NC(=O)[C@H](CC(C)C)NC(=O)[C@@H](N)CCCNC(=N)N)CSSC[C@@H](C(=O)N[C@@H](CCCNC(=N)N)C(=O)O)NC(=O)[C@H](C(C)C)NC(=O)[C@H](CCCNC(=N)N)NC(=O)[C@H]([C@@H](C)CC)NC(=O)[C@H](C(C)C)NC(=O)[C@H](C(C)C)NC1=O [cyclic dodecapeptide, RLCRIVVIRVCR] (H-RLCRIVVIRVCR-OH; disulfide 3-11) | 20.11±8.3 | 76.22±4.1 | 61.55+4% | 19.1±1.9 | 17.1±2.2 | 33.93±9 | 12.8±1.9 | 3.9±0.9 | 13.36±1.5 | 4.73±1.7 | 12.07±1.4 | 4.8±1.3 |  | 
2 | bactenecin (RLCRIVVIRVCR; disulfide 3-11; UniProt P22226 144-155, looked up) |  |  |  |  |  |  |  |  |  |  |  |  | strongly cytotoxic | strongly cytotoxic
